Experiments:
[1] = test system: conscious rats; experiment: Effect on cystometry in conscious rats (bladder volume capacity); type: in vivo, rat; conditions: for MED (Minimal Effective Dose that induces statistically significant increase of bladder volume capacity): oral administration; for increase of bladder volume capacity: orally
Procedure: Male Sprague-Dawley rats [Crl: CD® (SD) IGS BR] of 300-400 g b.w. supplied by Charles River Italia were used. The animals were housed with free access to food and water and maintained on a forced 12-hour-light/12-hour-dark cycle at 22-24° C. of temperature, except during the experiment. To quantify urodynamic parameters in conscious rats, cystometrographic studies were performed according to the procedure previously reported (Guarneri et al., Pharmacol. Res. 24: 175, 1991).
Briefly, the rats were anaesthetised by intraperitoneal administration of 3 ml/kg of Equithensin solution (pentobarbital 30 mg/kg and chloral hydrate 125 mg/kg) and placed in a supine position. An approximately 10 mm long midline incision was made in the shaved and cleaned abdominal wall. The urinary bladder was gently freed from adhering tissues, emptied and then cannulated via an incision in the bladder body, using a polyethylene cannula (0.58 mm internal diameter, 0.96 mm external diameter) which was permanently sutured with silk thread. The cannula was exteriorised through a subcutaneous tunnel in the retroscapular area, where it was connected to a plastic adapter in order to avoid the risk of removal by the animal. For drug testing, the rats were utilised one day after implantation.
On the day of the experiment, the rats were placed in modified Bollman cages, i.e., restraining cages that were large enough to permit the rats to adopt a normal crouched posture, but narrow enough to prevent turning around. […] The intraluminal-pressure signal during infusion of saline into the bladder (cystometrogram) was continuously recorded on a polygraph (Rectigraph-8K San-ei with BM614/2 amplifier from Biomedica Mangoni) or stored on PC by data acquisition system (PowerLab, Chart 4 software, AD Instruments). From the cystometrogram, bladder volume capacity (BVC) was evaluated. […] Basal BVC value was evaluated as the mean of the values observed in the cystometrograms recorded in an initial period of 30-60 minutes. […] The bladder infusion restarted and changes in BVC were evaluated from the mean values obtained in the cystometrograms observed during 1, 2, and 3 hours after treatment. […]
Each experimental group was composed of 4-11 animals. All data were expressed as mean±standard error. The percent change of BVC versus the basal value, as well as Δ value (difference in ml) of BVC (BVC at time “x” minus basal value), were also evaluated for each rat/time. […]
Statistical analysis on BVC values, as well as on Δ values, was performed by S.A.S./STAT software, version 6.12. The difference between vehicle and active treatment effect was evaluated on Δ values of BVC, whereas the difference between the values at different times versus the basal values was evaluated on original BVC data.

[2] = biological target: T1, mGlu5 receptor (Rattus norvegicus, UniProt P31424); experiment: Radioligand binding assay at metabotropic glutamate receptor 5 in rat brain; conditions: [3H]MPEP, rat forebrain membranes; read-out: affinity (Ki) for mGlu5 receptor
T1 construct: from tissue; host or cells: rat forebrain (cortex, striatum and hippocampus) membranes, male Sprague Dawley rats
T1 sequence (P31424 21-1203): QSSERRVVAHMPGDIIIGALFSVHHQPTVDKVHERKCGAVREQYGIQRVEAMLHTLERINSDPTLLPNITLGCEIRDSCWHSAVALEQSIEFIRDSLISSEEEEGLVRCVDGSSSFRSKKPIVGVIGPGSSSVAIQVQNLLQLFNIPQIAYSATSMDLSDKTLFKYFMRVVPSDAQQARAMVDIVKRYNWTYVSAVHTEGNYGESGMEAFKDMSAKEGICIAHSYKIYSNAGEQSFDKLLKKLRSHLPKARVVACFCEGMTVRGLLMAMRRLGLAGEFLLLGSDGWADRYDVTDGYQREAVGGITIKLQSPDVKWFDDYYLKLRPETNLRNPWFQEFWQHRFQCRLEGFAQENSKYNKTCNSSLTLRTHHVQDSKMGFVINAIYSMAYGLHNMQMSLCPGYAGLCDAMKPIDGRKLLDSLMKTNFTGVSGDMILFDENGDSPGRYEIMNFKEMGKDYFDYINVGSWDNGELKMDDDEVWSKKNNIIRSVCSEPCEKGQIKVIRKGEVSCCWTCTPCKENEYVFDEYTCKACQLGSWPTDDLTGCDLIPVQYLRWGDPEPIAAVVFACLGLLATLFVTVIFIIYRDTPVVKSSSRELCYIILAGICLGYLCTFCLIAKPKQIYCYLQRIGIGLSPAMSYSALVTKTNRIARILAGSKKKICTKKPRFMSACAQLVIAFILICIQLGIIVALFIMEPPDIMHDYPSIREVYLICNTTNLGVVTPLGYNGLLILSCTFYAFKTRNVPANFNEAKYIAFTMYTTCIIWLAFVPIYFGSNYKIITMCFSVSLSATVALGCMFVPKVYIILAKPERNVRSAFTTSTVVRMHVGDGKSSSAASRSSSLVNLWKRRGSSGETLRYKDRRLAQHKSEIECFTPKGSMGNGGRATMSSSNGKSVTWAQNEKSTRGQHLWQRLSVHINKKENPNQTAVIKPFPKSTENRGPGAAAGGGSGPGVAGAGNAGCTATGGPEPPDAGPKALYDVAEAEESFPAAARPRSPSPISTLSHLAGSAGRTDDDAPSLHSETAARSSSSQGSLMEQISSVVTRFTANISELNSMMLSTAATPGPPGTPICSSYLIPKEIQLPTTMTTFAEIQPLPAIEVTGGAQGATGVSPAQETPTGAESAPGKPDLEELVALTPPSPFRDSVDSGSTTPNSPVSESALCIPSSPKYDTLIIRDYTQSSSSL
Procedure: Radioligand Binding Assay at Metabotropic Glutamate Receptor 5 in Rat Brain.
a) Membrane preparation: male Sprague Dawley rats (200-300 g, Charles River, Italy) were killed by cervical dislocation and the forebrain (cortex, striatum and hippocampus) was homogenized (2×20 sec) in 50 vols of cold 50 mM Tris buffer pH 7.4, using a Politron homogenizer (Kinematica). Homogenates were centrifuged at 48000×g for 15 min, resuspended in 50 vols of the same buffer, incubated at 37° C. for 15 min and centrifuged and resuspended two more times. The final pellets were frozen and stored at −80° C. until use.
b) Binding assay: pellets from rat forebrain were resuspended in 100 vols of 20 mM HEPES, 2 mM MgCl2, 2 mM CaCl2, pH 7.4. The membranes were incubated in a final volume of 1 ml for 60 min at 25° C. with 4 nM [^3H]MPEP in the absence or presence of competing drugs. Non-specific binding was determined in the presence of 10 μM MPEP (Spooren W. et al., Trends Pharmacol Sci. 22, 331-337, 2001). The incubation was stopped by the addition of cold Tris buffer pH 7.4 and rapid filtration through 0.5% polyethyleneimine pretreated Filtermat 1204-401 (Wallac) filters. The filters were then washed with cold buffer and the radioactivity retained on the filters was counted by liquid scintillation spectrometry. […]

Ki [2] [nM]	Structure (SMILES)	MED (Minimal Effective Dose that induces statistically significant increase of bladder volume capacity) [1] [mg/kg]	increase of bladder volume capacity ([1]; 1 mg/kg)	increase of bladder volume capacity ([1]; 3 mg/kg, statistically significant from the vehicle group after 3 hours from treatment)
	Clc1cccc(C#CC2=NOC3(CCC4(CCCO4)CC3)C2)c1 (single isomer, unassigned) [Example 78, 3-[(3-Chlorophenyl)ethynyl]-1,9-dioxa-2-azadispiro[4.2.4.2]tetradec-2-ene]	3		
	Cc1nc(C#Cc2cccnc2)cs1 [MTEP]	3	only a slight increase	sustained increase
1.49	CON(C)C(=O)N1CCC2(CC(C#Cc3cccc(Cl)c3)=NO2)C1 (stereo not drawn) [Example 110, 7-[2-(3-Chlorophenyl)ethynyl]-N-methoxy-N-methyl-9-oxa-3,8-diazaspiro[4.4]non-7-ene-3-carboxamide]			
3.88	Cc1ccc([N+](=O)[O-])c(N2CCC3(CC2)CC(C#Cc2cccc(Cl)c2)=NO3)n1 [Example 12, 3-[(3-Chlorophenyl)ethynyl]-8-(6-methyl-3-nitropyridin-2-yl)-1-oxa-2,8-diazaspiro[4.5]dec-2-ene]			

Source: patent US8580962B2, “Spiroheterocyclic compounds as mGlu5 antagonists” (Recordati Ireland Ltd., priority 2010, dated 2013)
